Measurements as given in US7615359B2, “Copolymer 1 related polypeptides for use as molecular weight markers and for therapeutic use” (Yeda Research and Development Co., Ltd., priority 1998, dated 2009).

B1: AKKYAKKEKAYAKKAEKAAKKAEAKAYKAAEAKKKAKAEAKKYAKAAKAEKKEYAAAEAKYKAEAAKAAAKEAAYEA (peptide)
chain: AKKYAKKEKAYAKKAEKAAKKAEAKAYKAAEAKKKAKAEAKKYAKAAKAEKKEYAAAEAKYKAEAAKAAAKEAAYEA
B2: AKKYAKKEKAYAKKAEKAAKKAEAKAYKAAEAKKKAKAEAKKYAKAAKAEKKEYAAAEAKYKAEAAKKAYKAEAAKAAAKEAAYEA (peptide)
chain: AKKYAKKEKAYAKKAEKAAKKAEAKAYKAAEAKKKAKAEAKKYAKAAKAEKKEYAAAEAKYKAEAAKKAYKAEAAKAAAKEAAYEA
B3: AKKYAKKAEKAYAKKAKAAKEKKAYAKKEAKAYKAAEAKKKAKAEAKKYAKEAAKAKKEAYKAEAKKYAKAAKAEKKEYAAAEAKKAEAAKAYKAEAAKAAAKEAAYEA (peptide)
chain: AKKYAKKAEKAYAKKAKAAKEKKAYAKKEAKAYKAAEAKKKAKAEAKKYAKEAAKAKKEAYKAEAKKYAKAAKAEKKEYAAAEAKKAEAAKAYKAEAAKAAAKEAAYEA
notes: reversed-phase fraction 2 designated TV-109
B4: AKKYAKKEKAYAKAKKAEAKAAKKAKAEAKKYAKAAKAEKKEYAAAEAKYKAEAAKAAAKEAAYEA (peptide)
chain: AKKYAKKEKAYAKAKKAEAKAAKKAKAEAKKYAKAAKAEKKEYAAAEAKYKAEAAKAAAKEAAYEA

What was measured:
[1] = tested on: experimental allergic encephalomyelitis (EAE) in (SJL/JxBALB/c)FI mice; assay: Blocking of experimental allergic encephalomyelitis (EAE) by injection with complete adjuvant; format: in vivo, mouse; settings: for Incidence of EAE: antigen included in the encephalitogenic inoculum, animals with EAE/animals; for % Blocking: blocking of EAE vs control inoculum; for Mean Score: disease score 0 (healthy) to 5 (dead); for Mean Onset: animals not protected, onset = day of disease score of at least 1
Text: Blocking of Experimental Allergic Encephalomyelitis—To test the physiological activity of TV-markers, protection from experimental allergic encephalomyelitis (EAE) was investigated in mice. Injection of Copolymer 1 in complete Freund's adjuvant together with the encephalitogen can block EAE essentially as described in Aharoni et al., 17 EUR. J. IMMUNOL. 23 (1993). Other researchers have observed that the therapeutic effect of Copolymer 1 in multiple sclerosis patients is also associated with the induction of TH2 cells. Lahat et al., 244 J. NEUROL. 129 (1997). In this example, EAE is blocked by different polypeptides of the present invention.
Pertussis toxin (0.25 ml, 250 ng, Sigma) is injected intravenously, immediately after and 48 hr later. […] 2156 (1979).
EAE blocking by injection with complete adjuvant—Each antigen being tested was included in the encephalitogenic inoculum. […] Also shown is the mean onset of EAE in animals which were not protected. Disease intensity is scored daily in mice with a score of zero (0=healthy) to five (5=dead).

[2] = tested on: L-22-1 T cell clone; assay: Proliferation of Cop 1 specific T cell line (3H-thymidine uptake); settings: 10 µg antigen; relative to Cop 1
[3] = tested on: anti-Cop-1 (3-3-9) monoclonal antibody; assay: RIA: binding of anti-Cop 1 monoclonal antibody to coated antigen; settings: relative to Cop 1 reference standard; 2 µg/ml coating antigen
[4] = tested on: BALB/c-Ts-Cop-1 T cell line; assay: Proliferation of Cop 1 specific T cell line (3H-thymidine uptake); settings: 10 µg antigen; relative to Cop 1
[5] = tested on: SC-103 human Cop 1 specific T cell clone; assay: as above; settings: 10 µg antigen; relative to Cop 1
[6] = tested on: anti-Cop-1 (3-1-45) monoclonal antibody; assay: RIA: binding of anti-Cop 1 monoclonal antibody to coated antigen; settings: relative to Cop 1 reference standard; 2 µg/ml coating antigen
[7] = tested on: anti-Cop-1 (5-7-2) monoclonal antibody; assay: as above; settings: relative to Cop 1 reference standard; 2 µg/ml coating antigen

| Molecule | Incidence of EAE [1] | % Blocking [1] | 3H-Thymidine incorporation, % Cop1, L-22-1 [2] | Binding of mAb anti-Cop-1 (3-3-9), % Cop1 binding [3] | 3H-Thymidine incorporation, % Cop1, BALB/c-Ts-Cop-1 [4] | 3H-Thymidine incorporation, % Cop1, SC-103 [5] | Binding of mAb anti-Cop-1 (3-1-45), % Cop1 binding [6] | Binding of mAb anti-Cop-1 (5-7-2), % Cop1 binding [7] | Mean Score [1] | Mean Onset [1] |
| --- | --- | --- | --- | --- | --- | --- | --- | --- | --- | --- |
| AKKYAKKAKAEKAKKAYKAAEAKKAAKYEKAAAEKAAAKEAAYEA [TV-45] | 0/10 | 100% |  |  |  |  |  |  |  |  |
| AKKYAKKEKAAKKAYKKEAKAKAAEAAAKEAAYEA [TV-35] |  |  | 0% | 0% | 28% | 0% | 0% | 1% |  |  |
| AKKYAKKEKAYAKKAEKAAKKAEAKAYKAAEAKKKAEAKYKAEAAKAAAKEAAYEA [TV-56] |  |  | 0% | 2% | 59% | 0% | 6% | 91% |  |  |
| glatiramer acetate [compound 03494, reference compound] | 0/10 | 100% |  |  |  |  |  |  | 0 |  |
| glatiramer acetate [compound 55296, reference compound] |  |  | 106% | 91% | 110% | 81% | 83% | 82% |  |  |
| glatiramer acetate [compound 55396, reference compound] | 0/10 | 100% | 105% | 90% | 105% | 80% | 85% | 86% | 0 |  |
| B1 | 1/9 | 89% | 1% | 6% | 52% | 0% | 9% | 37% |  | 14.0 days |
| B2 | 3/10 | 70% | 1% | 2% | 44% | 0% | 6% | 76% |  | 12.0 days |
| B3 | 0/10 | 100% |  |  |  |  |  |  |  |  |
| B4 | 6/10 | 40% |  |  |  |  |  |  |  | 11.7 days |
